Read-outs that look alike come from different tables or passages of the source.
Molecular target: T1, delF508-CFTR (Homo sapiens, UniProt P13569, DEL508-508)
T1 construct: endogenous in cells; host or cells: CFBE41o- human CF bronchial epithelial cells (delF508 homozygous)
Experiment: SPQ halide-sensitive fluorescence dye assay for rescue of halide efflux (8-point concentration-response)
Type: cell-based
Settings: for potency and efficacy compared with VX-809 in SPQ assay: versus VX-809
Procedure: The method of profiling can include detecting the rescue of halide efflux from a cell. The step of detecting a rescue of halide efflux from the cell can be monitored using the halide quenched dye 6-methoxy-N-(3-sulfopropyl)-quinolinium (SPQ, Molecular Probes Inc., Eugene, Oreg.). In this method, cells are treated with a compound as described herein for a period of time (e.g., 48 hours). The rescue or correction of halide efflux is then detected using the SPQ assay with the halide dye. […] Optionally, the halide efflux is chloride efflux. The method of screening can further comprise performing the method with multiple concentrations of the compound.
The compounds were initially subjected to the SPQ halide-sensitive fluorescence dye profiling assay for rescue or correction of membrane chloride ion permeability or transport with an 8-point concentration-response curve. The EC50 values for the compounds described herein were determined using SPQ (Table 1). The ΔSPQ value was calculated by determining the difference between the maximum and minimum SPQ values for the compounds.
To perform the SPQ high throughput screening assay, CFBE41o-cells were seeded into 96-well microtiter plates and were loaded with the fluorescent halide-sensitive dye, SPQ, in serum-containing culture medium. Certain wells were loaded with known positive control corrector molecules, including the industry standard Vertex 809 (VX-809; Vertex Pharmaceuticals, Cambridge, Mass.) at 3 μM, which is the maximally effective profiling dose for VX-809. The test compounds were loaded into wells and were tested in triplicate wells at a 10 μM dose and incubated over 48 hours at room temperature. During the 48 hour period, SPQ was absorbed. Plates were washed in a sodium chloride (NaCl) based Ringer and read once over two minutes to set the baseline SPQ fluorescence activity. Then, NaCl was replaced by sodium nitrate (NaNO3) based Ringer. The plates were read twice over four minutes. The primary high throughput screen (HTS) data were analyzed to detect any function of rescued delF508-CFTR under basal conditions. The plate was read up to two times to complete the SPQ HTS assay.

[1] = CFBE41o- cells, 48 h, read-out: SPQ EC50

T1 sequence (P13569 with tags, fused parts or gaps DEL508-508): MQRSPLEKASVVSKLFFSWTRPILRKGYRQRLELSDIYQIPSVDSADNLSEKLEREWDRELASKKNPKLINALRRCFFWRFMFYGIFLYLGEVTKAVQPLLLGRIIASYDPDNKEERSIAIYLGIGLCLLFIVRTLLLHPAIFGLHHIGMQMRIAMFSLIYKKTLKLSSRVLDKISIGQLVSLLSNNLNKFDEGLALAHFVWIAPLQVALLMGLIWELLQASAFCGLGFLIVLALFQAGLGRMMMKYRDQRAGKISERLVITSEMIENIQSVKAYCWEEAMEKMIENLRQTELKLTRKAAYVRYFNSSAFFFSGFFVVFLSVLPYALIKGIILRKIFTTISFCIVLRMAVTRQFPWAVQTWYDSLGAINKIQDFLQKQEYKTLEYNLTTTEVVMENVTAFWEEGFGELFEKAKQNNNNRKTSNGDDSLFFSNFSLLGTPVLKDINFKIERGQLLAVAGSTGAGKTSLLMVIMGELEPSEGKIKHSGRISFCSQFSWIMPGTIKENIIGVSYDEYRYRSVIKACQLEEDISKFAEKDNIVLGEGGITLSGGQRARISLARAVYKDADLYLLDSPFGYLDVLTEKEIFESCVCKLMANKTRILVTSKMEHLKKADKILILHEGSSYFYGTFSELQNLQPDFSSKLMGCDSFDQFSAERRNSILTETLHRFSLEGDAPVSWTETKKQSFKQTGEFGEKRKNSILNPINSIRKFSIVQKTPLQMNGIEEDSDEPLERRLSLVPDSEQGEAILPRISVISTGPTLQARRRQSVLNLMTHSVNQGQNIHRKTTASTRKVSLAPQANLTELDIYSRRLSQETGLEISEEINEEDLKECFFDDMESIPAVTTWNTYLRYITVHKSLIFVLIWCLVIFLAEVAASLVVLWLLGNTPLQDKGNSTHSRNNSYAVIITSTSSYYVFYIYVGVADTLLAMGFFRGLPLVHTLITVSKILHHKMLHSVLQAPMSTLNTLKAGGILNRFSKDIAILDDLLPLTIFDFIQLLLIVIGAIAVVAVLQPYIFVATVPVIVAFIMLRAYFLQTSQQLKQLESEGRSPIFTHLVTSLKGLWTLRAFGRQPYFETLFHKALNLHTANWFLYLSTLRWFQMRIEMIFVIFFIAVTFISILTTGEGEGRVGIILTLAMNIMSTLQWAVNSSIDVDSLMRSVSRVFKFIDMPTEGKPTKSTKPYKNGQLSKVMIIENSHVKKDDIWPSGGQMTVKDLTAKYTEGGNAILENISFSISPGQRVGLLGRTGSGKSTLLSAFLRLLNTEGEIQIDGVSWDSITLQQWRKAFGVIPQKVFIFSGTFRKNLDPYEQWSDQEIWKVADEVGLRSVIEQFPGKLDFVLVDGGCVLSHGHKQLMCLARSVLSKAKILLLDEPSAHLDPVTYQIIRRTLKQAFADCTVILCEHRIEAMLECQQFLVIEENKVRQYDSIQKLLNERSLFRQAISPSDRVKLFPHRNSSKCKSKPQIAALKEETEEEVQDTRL

Compound	EC50 [1]	SPQ EC50 (CFBE41o- cells, 48 h)	other results
CSc1nc(SCC(=O)O)c2sc3c(c2n1)COC(C)(C)C3 [Compound 2]	15.8 µM	–	ΔSPQ (difference between maximum and minimum SPQ values) (CFBE41o- cells, 48 h): 4862 RFU
Cc1cn2c3c(=O)n(C)c(=O)n(C)c3nc2n1-c1ccccc1O [Compound A-1]	–	No effect	–
Cc1cn2c3c(=O)n(C)c(=O)n(C)c3nc2n1-c1cccc(O)c1 [Compound A-2]	8.9 µM	–	ΔSPQ (difference between maximum and minimum SPQ values) (CFBE41o- cells, 48 h): 4000 RFU; potency and efficacy compared with VX-809 in SPQ assay: superior potency and efficacy to VX-809
Cc1cn2c3c(=O)n(C)c(=O)n(C)c3nc2n1-c1ccc(O)cc1 [Compound A-3]	6.5 µM	–	ΔSPQ (difference between maximum and minimum SPQ values) (CFBE41o- cells, 48 h): 2100 RFU; potency and efficacy compared with VX-809 in SPQ assay: superior potency and efficacy to VX-809
Cc1cn2c3c(=O)n(C)c(=O)n(C)c3nc2n1-c1ccccn1 [Compound A-4]	–	No effect	–
Cc1cn2c3c(=O)n(C)c(=O)n(C)c3nc2n1-c1cccnc1 [Compound A-5]	–	No effect	–
Cc1cn2c3c(=O)n(C)c(=O)n(C)c3nc2n1CCO [Compound A-7]	–	No effect	–
Cc1cn2c3c(=O)n(C)c(=O)n(C)c3nc2n1CCN(C)C [Compound A-8]	–	No effect	–
Cc1cn2c3c(=O)n(C)c(=O)n(C)c3nc2n1CC[N+](C)(C)C [Compound A-9]	–	No effect	–
Cc1cn2c3c(=O)n(C)c(=O)n(C)c3nc2n1CCN1CCOCC1 [Compound A-10]	–	No effect	–
Cn1c(=O)c2nc(N3CCOCC3)[nH]c2n(C)c1=O [Compound B-1]	9.7 µM	–	–
Cn1c(=O)c2nc(N3CCNCC3)[nH]c2n(C)c1=O [Compound B-2]	–	No effect	–
Cn1c(=O)c2nc(N3CCN(c4ccccn4)CC3)[nH]c2n(C)c1=O [Compound B-3]	10 µM	–	–
Cn1c(=O)c2[nH]c(N3CCN(c4ccncc4)CC3)nc2n(C)c1=O [Compound B-4]	–	No effect	–
Cn1c(=O)c2nc(N3CCN(c4ncccn4)CC3)[nH]c2n(C)c1=O [Compound B-5]	–	No effect	–
Cn1c(=O)c2[nH]c(N3CCN(c4ccc(O)cc4)CC3)nc2n(C)c1=O [Compound B-6]	–	No effect	–
COc1ccc(CN2CCN(c3nc4c(=O)n(C)c(=O)n(C)c4[nH]3)CC2)cc1 [Compound B-7.1]	0.9 µM	–	ΔSPQ (difference between maximum and minimum SPQ values) (CFBE41o- cells, 48 h): 800 RFU; potency and efficacy compared with VX-809 in SPQ assay: superior potency and efficacy to VX-809
COc1ccc(CN2CCN(c3nc4c(=O)n(C)c(=O)n(C)c4[nH]3)CC2)cc1OC [Compound B-7.2]	> 30 µM	–	–
CCOc1ccc(CN2CCN(c3nc4c(=O)n(C)c(=O)n(C)c4[nH]3)CC2)cc1 [Compound B-7.3]	3.8 µM	–	–
CSc1ccc(CN2CCN(c3nc4c(=O)n(C)c(=O)n(C)c4[nH]3)CC2)cc1 [Compound B-7.4]	–	No effect to inhibitory	–
Cc1ccc(CN2CCN(c3nc4c(=O)n(C)c(=O)n(C)c4[nH]3)CC2)cc1 [Compound B-7.5]	–	No effect	–
Cn1c(=O)c2nc(N3CCN(Cc4ccc(OC(F)(F)F)cc4)CC3)[nH]c2n(C)c1=O [Compound B-7.6]	–	No effect	–

Compound	EC50 [1]	SPQ EC50 (CFBE41o- cells, 48 h)	other results
Cn1c(=O)c2nc(N3CCN(Cc4ccc(C(F)(F)F)cc4)CC3)[nH]c2n(C)c1=O [Compound B-7.7]	–	No effect	–
Cn1c(=O)c2nc(N3CCN(Cc4ccc5c(c4)OCCO5)CC3)[nH]c2n(C)c1=O [Compound B-7.8]	–	No effect	–
COc1ccccc1CN1CCN(c2nc3c(=O)n(C)c(=O)n(C)c3[nH]2)CC1 [Compound B-7.9]	3.2 µM	–	ΔSPQ (difference between maximum and minimum SPQ values) (CFBE41o- cells, 48 h): 2800 RFU; potency and efficacy compared with VX-809 in SPQ assay: superior potency and efficacy to VX-809
COc1cccc(CN2CCN(c3nc4c(=O)n(C)c(=O)n(C)c4[nH]3)CC2)c1 [Compound B-7.10]	7.1 µM	–	ΔSPQ (difference between maximum and minimum SPQ values) (CFBE41o- cells, 48 h): 3750 RFU; potency and efficacy compared with VX-809 in SPQ assay: superior potency and efficacy to VX-809
COc1ccc(C(=O)N2CCN(c3nc4c(=O)n(C)c(=O)n(C)c4[nH]3)CC2)cc1 [Compound B-7.12]	6.2 µM	–	–
COc1ccc(N2CCN(c3nc4c([nH]3)c(=O)n(C)c(=O)n4C)CC2)cc1 [Compound B-7.17]	3.5 µM	–	–
COCCCCN1CCN(c2nc3c(=O)n(C)c(=O)n(C)c3[nH]2)CC1 [Compound B-7.20]	–	No effect	–
Cn1c(=O)c2nc(N3CCN(Cc4ccc(O)cc4)CC3)[nH]c2n(C)c1=O [Compound B-7]	–	No effect	–
Cn1c(=O)c2nc(NCCO)[nH]c2n(C)c1=O [Compound B-8]	–	No effect	–
CN(C)CCNc1nc2c(=O)n(C)c(=O)n(C)c2[nH]1 [Compound B-9]	–	No effect	–
Cn1c(=O)c2[nH]c(NCCN)nc2n(C)c1=O [Compound B-11]	–	No effect	–
Cn1c(=O)c2[nH]c(NCCSc3ncccn3)nc2n(C)c1=O [Compound B-12]	–	No effect	–
Cn1c(=O)c2[nH]c(NCCNc3ccccn3)nc2n(C)c1=O [Compound B-13]	–	No effect	–
Cn1c(=O)c2nc(N3CCN(CCO)CC3)[nH]c2n(C)c1=O [Compound B-14]	–	No effect	–
Cn1c(=O)c2[nH]c(N3CCC(O)CC3)nc2n(C)c1=O [Compound B-15]	–	No effect	–
C=CCn1c(=O)c2c(nc3n(CCC)c(C)cn23)n(C)c1=O [Compound I-1]	17.8 µM	–	ΔSPQ (difference between maximum and minimum SPQ values) (CFBE41o- cells, 48 h): 3801 RFU
CCCCn1c(C)cn2c3c(=O)n(CCC)c(=O)n(C)c3nc12 [Compound I-2]	–	–	EC50: > 30 µM; ΔSPQ (difference between maximum and minimum SPQ values) (CFBE41o- cells, 48 h): 3102 RFU
C/C=C/Cn1c(=O)c2c(nc3n(C(C)CC)c(C)cn23)n(C)c1=O (centres unmarked) [Compound I-3]	> 30 µM	–	ΔSPQ (difference between maximum and minimum SPQ values) (CFBE41o- cells, 48 h): 5305 RFU
C=CCn1c(=O)c2c(nc3n(C(C)CC)c(C)c(C)n23)n(C)c1=O (centres unmarked) [Compound I-4]	5.4 µM	–	ΔSPQ (difference between maximum and minimum SPQ values) (CFBE41o- cells, 48 h): 11108 RFU
Cc1cccc(-n2c(C)c(C)n3c4c(=O)n(C)c(=O)n(C)c4nc23)c1 [Compound I-5]	> 30 µM	–	ΔSPQ (difference between maximum and minimum SPQ values) (CFBE41o- cells, 48 h): 13531 RFU
CCn1c(=O)c2c(nc3n(-c4cccc(C)c4)c(C)c(C)n23)n(C)c1=O [Compound I-6]	8.9 µM	–	ΔSPQ (difference between maximum and minimum SPQ values) (CFBE41o- cells, 48 h): 6023 RFU
CCn1c(=O)c2c(nc3n(-c4ccc(F)cc4)c(C)c(C)n23)n(C)c1=O [Compound I-7]	10.1 µM	–	ΔSPQ (difference between maximum and minimum SPQ values) (CFBE41o- cells, 48 h): 5779 RFU
